# Test results as given in US9914730B2, “Azaquinazoline inhibitors of Atypical protein Kinase C” (Ignyta, Inc., priority 2012, dated 2018).
# Molecular target: T1, full-length human PKCι (Homo sapiens, UniProt P41743)
# T1 construct: Recombinant, full-length human PKCι expressed in Sf21 insect cells is also commercially available; purchased; host or cells: Sf21 insect cells
# T1 sequence (P41743 1-596): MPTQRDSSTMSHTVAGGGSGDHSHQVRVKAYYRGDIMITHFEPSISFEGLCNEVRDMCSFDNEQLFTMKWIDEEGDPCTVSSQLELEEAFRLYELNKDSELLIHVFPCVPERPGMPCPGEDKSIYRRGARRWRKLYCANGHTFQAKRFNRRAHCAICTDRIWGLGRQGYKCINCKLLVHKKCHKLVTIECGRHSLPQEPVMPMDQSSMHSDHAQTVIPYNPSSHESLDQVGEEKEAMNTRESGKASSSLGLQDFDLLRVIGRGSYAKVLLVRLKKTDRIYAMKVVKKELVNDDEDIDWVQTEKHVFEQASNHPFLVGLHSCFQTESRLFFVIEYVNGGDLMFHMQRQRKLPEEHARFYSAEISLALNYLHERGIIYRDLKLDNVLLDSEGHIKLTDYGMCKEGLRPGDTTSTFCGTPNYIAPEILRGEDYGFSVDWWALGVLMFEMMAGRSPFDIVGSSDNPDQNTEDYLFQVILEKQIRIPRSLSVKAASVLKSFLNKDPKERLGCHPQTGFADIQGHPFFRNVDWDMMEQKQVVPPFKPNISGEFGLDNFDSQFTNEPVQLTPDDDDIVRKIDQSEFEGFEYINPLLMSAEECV
# Assay: PKCι IC50 IMAP assay, full-length PKCι at 150 μM ATP
# Assay type: biochemical
# Conditions: read-out: IC50 in IMAP assay against full length PKCi at 150 μM ATP
# In short: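 IC50 from IMAP FP (ex 485/em 530 nm) after 60 min room-temperature reaction in pH 7.5 tris buffer with 9 mM MgCl2 and 0.9 mM DTT. Enzyme: full-length Sf21-expressed PKCι (~15 pM); ATP 150 μM, five times KM^APP; FAM-labelled peptide 100 nM; DMSO 4%.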
row,IC50 [nM],SMILES
1,100 to 1000,"COc1cncc2nc(N3CCOCC3)nc(N3CCN[C@@H](COc4ccc(F)cc4)C3)c12 [Example 1010, 4-[(R)-3-(4-Fluoro-phenoxymethyl)-piperazin-1-yl]-5-methoxy-2-morpholin-4-yl-pyrido[3,4-d]pyrimidine]"
2,1000 to 10000,"c1cc2c(N[C@@H]3CCNC3)nc(N3CCOCC3)nc2cn1 [Example 1011, (2-Morpholin-4-yl-pyrido[3,4-d]pyrimidin-4-yl)-(R)-pyrrolidin-3-yl-amine]"
3,1000 to 10000,"c1cc(-c2nccc3c(N[C@@H]4CCNC4)nc(N4CCOCC4)nc23)[nH]n1 [Example 1012, [2-Morpholin-4-yl-8-(2H-pyrazol-3-yl)-pyrido[3,4-d]pyrimidin-4-yl]-(R)-pyrrolidin-3-yl-amine]"
4,100 to 1000,"Nc1nccc2c(NC[C@@H](N)Cc3ccccc3)nc(N3CCOCC3)nc12 [Example 1013, N^4-((S)-2-Amino-3-phenyl-propyl)-2-morpholin-4-yl-pyrido[3,4-d]pyrimidine-4,8-diamine]"
5,100 to 1000,"N[C@H](CNc1nc(N2CCOCC2)nc2cnccc12)Cc1ccccc1 [Example 1014, (S)—N^1-(2-Morpholin-4-yl-pyrido[3,4-d]pyrimidin-4-yl)-3-phenyl-propane-1,2-diamine]"
6,100 to 1000,"Brc1cncc2nc(N3CCOCC3)nc(N3CCNCC3)c12 [Example 1015, 5-Bromo-2-morpholin-4-yl-4-piperazin-1-yl-pyrido[3,4-d]pyrimidine]"
7,< 100,"c1ncc2nc(N3CCOCC3)nc(N3CCNCC3)c2c1C1CC1 [Example 1016, 5-Cyclopropyl-2-morpholin-4-yl-4-piperazin-1-yl-pyrido[3,4-d]pyrimidine]"
8,< 100,"c1ccc(C[C@H]2CN(c3nc(N4CCOCC4)nc4cncc(C5CC5)c34)CCN2)cc1 [Example 1017, 4-((S)-3-Benzyl-piperazin-1-yl)-5-cyclopropyl-2-morpholin-4-yl-pyrido[3,4-d]pyrimidine]"
9,< 100,"N#CC[C@H]1CN(c2nc(N3CCOCC3)nc3cncc(C4CC4)c23)CCN1 [Example 1018, [(S)-4-(5-Cyclopropyl-2-morpholin-4-yl-pyrido[3,4-d]pyrimidin-4-yl)-piperazin-2-yl]-acetonitrile]"
10,< 100,"COc1cncc2nc(-c3ccnc4[nH]ccc34)nc(N3CCNCC3)c12 [Example 1200, 5-Methoxy-4-piperazin-1-yl-2-(1H-pyrrolo[2,3-b]pyridin-4-yl)-pyrido[3,4-d]pyrimidine]"
11,< 100,"COc1cncc2nc(-c3ccnc4[nH]c(C)cc34)nc(N3CCNCC3)c12 [Example 1201, 5-Methoxy-2-(2-methyl-1H-pyrrolo[2,3-b]pyridin-4-yl)-4-piperazin-1-yl-pyrido[3,4-d]pyrimidine]"
12,< 100,"COc1cncc2nc(-c3ccnc4[nH]c(Cc5ccccc5)cc34)nc(N3CCNCC3)c12 [Example 1202, 2-(2-Benzyl-1H-pyrrolo[2,3-b]pyridin-4-yl)-5-methoxy-4-piperazin-1-yl-pyrido[3,4-d]pyrimidine]"
13,< 100,"COc1cncc2nc(-c3ccnc4[nH]c(Cc5ccccc5F)cc34)nc(N3CCNCC3)c12 [Example 1203, 2-[2-(2-Fluoro-benzyl)-1H-pyrrolo[2,3-b]pyridin-4-yl]-5-methoxy-4-piperazin-1-yl-pyrido[3,4-d]pyrimidine]"
14,100 to 1000,"CCc1cc2c(-c3nc(N4CCNCC4)c4c(OC)cncc4n3)ccnc2[nH]1 [Example 1204, 2-(2-Ethyl-1H-pyrrolo[2,3-b]pyridin-4-yl)-5methoxy-4-piperazin-1-yl-pyrido[3,4-d]pyrimidine]"
15,100 to 1000,"COC[C@H]1CN(c2nc(-c3ccnc4[nH]ccc34)nc3cncc(OC)c23)CCN1 [Example 1205, 5-Methoxy-4-((R)-3-methoxymethyl-piperazin-1-yl)-2-(1H-pyrrolo[2,3-b]pyridin-4-yl)-pyrido[3,4-d]pyrimidine]"
16,< 100,"COc1cncc2nc(-c3ccnc4[nH]ccc34)nc(N3CCN[C@@H](CO)C3)c12 [Example 1206, {(R)-4-[5-Methoxy-2-(1H-pyrrolo[2,3-b]pyridin-4-yl)-pyrido[3,4-d]pyrimidin-4-yl]-piperazin-2-yl}-methanol]"
17,100 to 1000,"c1cc2c(N3CCNCC3)nc(-c3ccnc4[nH]ccc34)nc2cn1 [Example 1207, 4-Piperazin-1-yl-2-(1H-pyrrolo[2,3-b]pyridin-4-yl)-pyrido[3,4-d]pyrimidine]"

row,IC50 [nM],SMILES
1,100 to 1000,"c1cc2c(N[C@@H]3CCNC3)nc(-c3ccnc4[nH]ccc34)nc2cn1 [Example 1208, (R)-Pyrrolidin-3-yl-[2-(1H-pyrrolo[2,3-b]pyridin-4-yl)-pyrido[3,4-d]pyrimidin-4-yl]-amine]"
2,< 100,"c1cc(-c2nc(N3CCNCC3)c3c(C4CC4)cncc3n2)c2cc[nH]c2n1 [Example 1209, 5-Cyclopropyl-4-piperazin-1-yl-2-(1H-pyrrolo[2,3-b]pyridin-4-yl)-pyrido[3,4-d]pyrimidine]"
3,< 100,"Clc1ncc(C2CC2)c2c(N3CCNCC3)nc(-c3ccnc4[nH]ccc34)nc12 [Example 1210, 8-Chloro-5-cyclopropyl-4-piperazin-1-yl-2-(1H-pyrrolo[2,3-b]pyridin-4-yl)-pyrido[3,4-d]pyrimidine]"
4,< 100,"CC(C)c1cncc2nc(-c3ccnc4[nH]ccc34)nc(N3CCNCC3)c12 [Example 1211, 5-Isopropyl-4-piperazin-1-yl-2-(1H-pyrrolo[2,3-b]pyridin-4-yl)-pyrido[3,4-d]pyrimidine]"
5,< 100,FC(F)(F)c1cc2c(-c3nc(N4CCNCC4)c4c(C5CC5)cncc4n3)ccnc2[nH]1 [Example 1212]
6,< 100,"FC(F)(F)[C@H]1CN(c2nc(-c3ccnc4[nH]ccc34)nc3cncc(C4CC4)c23)CCN1 [Example 1213, 5-Cyclopropyl-2-(1H-pyrrolo[2,3-b]pyridin-4-yl)-4-((R)-3-trifluoromethyl-piperazin-1-yl)-pyrido[3,4-d]pyrimidine]"
7,< 100,"FC(F)(F)[C@@H]1CN(c2nc(-c3ccnc4[nH]ccc34)nc3cncc(C4CC4)c23)CCN1 [Example 1214, 5-Cyclopropyl-2-(1H-pyrrolo[2,3-b]pyridin-4-yl)-4-((S)-3-trifluoromethyl-piperazin-1-yl)-pyrido[3,4-d]pyrimidine]"
8,< 100,"Cc1cc2c(-c3nc(N4CCNC(C(F)(F)F)C4)c4c(C5CC5)cncc4n3)ccnc2[nH]1 (stereo not drawn) [Example 1215, 5-Cyclopropyl-2-(2-methyl-1H-pyrrolo[2,3-b]pyridin-4-yl)-4-(3-trifluoromethyl-piperazin-1-yl)-pyrido[3,4-d]pyrimidine]"
9,< 100,"Cc1cc2c(-c3nc(N4CCN[C@@H](C5CC5)C4)c4c(C5CC5)cncc4n3)ccnc2[nH]1 [Example 1216, 5-Cyclopropyl-4-((S)-3-cyclopropyl-piperazin-1-yl)-2-(2-methyl-1H-pyrrolo[2,3-b]pyridin-4-yl)-pyrido[3,4-d]pyrimidine]"
10,< 100,"Cc1cc2c(-c3nc(N4CCNCC4)c4c(C5CC5)cncc4n3)ccnc2[nH]1 [Example 1217, 5-Cyclopropyl-2-(2-methyl-1H-pyrrolo[2,3-b]pyridin-4-yl)-4-piperazin-1-yl-pyrido[3,4-d]pyrimidine]"
11,< 100,"FC(F)(F)C1CN(c2nc(-c3ccnc4[nH]ccc34)nc3cncc(C4CC4)c23)CCN1 (stereo not drawn) [Example 1218, 5-Cyclopropyl-2-(1H-pyrrolo[2,3-b]pyridin-4-yl)-4-(3-trifluoromethyl-piperazin-1-yl)-pyrido[3,4-d]pyrimidine]"
12,< 100,"c1ccc(C[C@H]2CN(c3nc(-c4ccnc5[nH]ccc45)nc4cncc(C5CC5)c34)CCN2)cc1 [Example 1219, 4-((S)-3-Benzyl-piperazin-1-yl)-5-cyclopropyl-2-(1H-pyrrolo[2,3-b]pyridin-4-yl)-pyrido[3,4-d]pyrimidine]"
13,< 100,"c1cc(-c2nc(N3CCN[C@@H](C4CC4)C3)c3c(C4CC4)cncc3n2)c2cc[nH]c2n1 [Example 1220, 5-Cyclopropyl-4-((S)-3-cyclopropyl-piperazin-1-yl)-2-(1H-pyrrolo[2,3-b]pyridin-4-yl)-pyrido[3,4-d]pyrimidine]"
14,< 100,"N#CC[C@H]1CN(c2nc(-c3ccnc4[nH]ccc34)nc3cncc(C4CC4)c23)CCN1 [Example 1221, {(S)-4-[5-Cyclopropyl-2-(1H-pyrrolo[2,3-b]pyridin-4-yl)-pyrido[3,4-d]pyrimidin-4-yl]-piperazin-2-yl}-acetonitrile]"
15,< 100,"c1csc(-c2cc3c(-c4nc(N5CCNCC5)c5c(C6CC6)cncc5n4)ccnc3[nH]2)c1 [Example 1222, 5-Cyclopropyl-4-piperazin-1-yl-2-(2-thiophen-2-yl-1H-pyrrolo[2,3-b]pyridin-4-yl)-pyrido[3,4-d]pyrimidine]"
16,< 100,"c1cc(-c2nc(N3CCNCC3)c3c(C4CC4)cncc3n2)c2cc(C3CC3)[nH]c2n1 [Example 1223, 5-Cyclopropyl-2-(2-cyclopropyl-1H-pyrrolo[2,3-b]pyridin-4-yl)-4-piperazin-1-yl-pyrido[3,4-d]pyrimidine]"
